Data: US20230219957A1, “SMALL MOLECULE CB002-ANALOGES RESTORE THE P53 PATHWAY AND TARGET S-PHASE CHECKPOINT” (Brown University, priority 2020, published 2023)

Legend:
Type in all cases: cell-based, human
HCT116 p53+/+ = assay: CellTiter-Glo (Cell-Titer glow) cytotoxicity assay; settings: forty-eight hours
Procedure: (§1) CellTiter-Glo® luminescent cell viability assay. Cells were seeded in 96-well plates at a density of 5×10^3 cells per well. 20 μL of CellTiter-Glo® Reagent was added directly to the wells, following the manufacturers protocol. The bioluminescence signal was determined using an IVIS imaging system, optionally at a period of 48-72 hours after treatment.
(§2) CB002-analog #4 is a potent anti-tumor agent in vitro and in vivo. The inventors focused on lead CB002-analog #4 and investigated its therapeutic index in vitro and in vivo. The inventors treated an isogenic HCT116 cell line panel with 100 μM CB002 or 25 μM CB002-analog #4 and established IC50 values by the Cell-Titer glow cytotoxicity assay. Across this panel, CB002-analog #4 has a 20-fold to 30-fold range in IC50 values, independently of the HCT116 p53-status.

HCT116 p53 R273H = assay: CellTiter-Glo (Cell-Titer glow) cytotoxicity assay; settings: forty-eight hours
Procedure: as §1, §2

HCT116 p53−/− = assay: CellTiter-Glo (Cell-Titer glow) cytotoxicity assay; settings: forty-eight hours
Procedure: as §1, §2

HCT116 p53 R175H = assay: CellTiter-Glo (Cell-Titer glow) cytotoxicity assay; settings: forty-eight hours
Procedure: as §1
Overexpression of p53 R175H mutant by lentivirus infection. HCT116 p53^−/− cells, obtained from the Vogelstein Laboratory, Johns Hopkins University, were infected with a lentivirus vector containing the p53 R175H mutant (pLenti6/V5-p53_R175H, Addgene). Cells were selected with blasticidin (8 μg/mL)-containing media cultured for ten days. Blasticidin-resistant clones (pooled clones) were screened for expression of the p53 R175H mutation by Western blot analysis with p53 DO-1 antibody.
as §2

Noxa = Noxa protein expression by immunoblotting; settings: for Noxa protein induction upon knockdown of ATF3/4: SW480 cells, 100 μM CB002 or 25 μM CB002-analog #4
Procedure: Immunoblotting. After treatment, cells were harvested by trypsinization, washed with phosphate-buffered saline, and lysed with RIPA buffer (Sigma-Aldrich) for thirty minutes to one hour at 4° C. Protein lysates were spun down. The supernatant was collected. Protein quantification was performed using a Pierce™ BCA Protein Assay Kit (Thermo Fisher Scientific, Waltham, Mass., USA). 1× NuPAGE® LDS sample buffer (Thermo Fisher Scientific, Waltham, Mass., USA) and 2-Mercaptoethanol as the reducing agent (Sigma-Aldrich) were added to protein lysates followed by boiling for fifteen minutes at 95° C. Equal total protein amounts samples were loaded into NuPAGE™ Novex™ 4-12% Bis-Tris Protein Gels (1.5 mm, Thermo Fisher Scientific, Waltham, Mass., USA). Gel electrophoresis was performed with NuPAGE™ MES SDS Running Buffer. Proteins were transferred onto an Immobilon-P membrane (PVDF, EMD Millipore, Taunton, Mass., USA) using a Bio-Rad system with a 10% Tris-Glycine and 10% methanol transfer buffer diluted in distilled and deionized water. After transfer, membranes were blocked with 10% milk in Tris-buffered saline with Tween 20 (TBST) solution. The membranes were then incubated overnight with the primary antibody, washed with TBST, and incubated with secondary antibody for one hour. Incubations were performed in 5% milk in TBST solution. Signal was detected by using a chemiluminescent detection kit, followed by autoradiography. The following antibodies were used: p53 (DO-1, 1:1000, Santa Cruz, Calif., USA), p73 (1:1000, Bethyl Laboratories), p21, and NOXA (1:250, EMD Millipore, Taunton, Mass., USA), DR5, FADD, cleaved caspase 3, cleaved caspase 8, cleaved PARP, and LC3B (1:1000, Cell Signaling Technology, Inc., Danvers, Mass. USA), and β-actin (1:10000, Sigma-Aldrich, St. Louis, Mo., USA).
Immunoblotting (additional method). […] Total protein per sample was determined using a Pierce™ BCA Protein Assay Kit (Thermo Fisher Scientific, Waltham, Mass., USA). […] Signal was detected using a chemiluminescent detection kit, followed by autoradiography. […]

SW480 cells = assay: Microarray transcriptomic analysis with ingenuity pathway analysis; settings: twelve hours treatment
Procedure: Microarray analysis. SW480 cells were seeded at a density of 1×10^6 in 10 cm dishes. After being adhered, the cells were treated with dimethyl sulfoxide vehicle control or CB002-analog #4. Floating cells were collected, and adherent cells were trypsinized at twelve hours of treatment. The cells were pelleted. According to manufacturer instructions, RNA was isolated from the cells using a Quick-RNA™ MiniPrep (#R1055, Zymo Research Irvine, Calif., USA). RNA quality was tested using an Agilent Bioanalyzer RNA kit. When the RNA quality was enough, RNA was amplified and labeled using the low RNA input linear amplification kit commercially available from Agilent Technologies, Santa Clara, Calif., USA. Labeled cDNA was hybridized onto Affymetrix Human Gene 2.0-ST array. Significant changes in gene expression were determined at 1.5-fold either up or down in dimethyl sulfoxide vehicle control versus CB002-analog #4.

Row | SMILES | IC50 (HCT116 p53+/+; Homo sapiens, HCT-116) | IC50 (HCT116 p53 R273H; Homo sapiens, HCT-116) | IC50 (HCT116 p53−/−; Homo sapiens, HCT-116) | IC50 (HCT116 p53 R175H; Homo sapiens, HCT-116) | Noxa expression (Noxa; 24 hours, DLD-1 and SW480 cells) | Noxa protein induction upon knockdown of ATF3/4 (Noxa) | IC50 (HCT116 p53+/+) | IC50 (HCT116 p53 R273H) | IC50 (HCT116 p53−/−) | IC50 (HCT116 p53 R175H) | p53 target genes Noxa, Puma, and DR5 expression (SW480 cells) | p53 upstream regulator activation z-score (IPA) (SW480 cells)
1 | Cn1c(=O)c2[nH]c(Nc3ccccc3)nc2n(C)c1=O [CB002] | 242 µM | 140 µM | 161 µM | 400 µM | induce Noxa expression | abrogated Noxa protein induction |  |  |  |  |  | 
2 | Cn1c(=O)c2[nH]c(Nc3cccc(C(F)(F)F)c3)nc2n(C)c1=O [CB002-analog #4] |  |  |  |  |  | abrogated Noxa protein induction | 8.69 µM | 8.09 µM | 8.83 µM | 4.46 µM | upregulated | 3.3
